In patent US20140274919A1, “BORON-CONTAINING COMPOSITIONS AND METHODS THEREFOR” (VDF FutureCeuticals, Inc., priority 2011, published 2014):

Tests used:
Format in all cases: in vivo
adiponectin = assay: Oral administration to human volunteers: blood concentration of adiponectin; settings: samples at 30 minute intervals vs time 0, FIG. 2
Description: In this instance the effect of oral administration of CFB on the blood concentration of adiponectin, along with the effect of administration of sodium borate (Na borate), and a placebo compound was measured. Blood samples were taken at a time 0 prior to administration in order to establish a baseline concentration for each individual. Additional samples were taken at 30 minute intervals, and the concentration of adiponectin compared to the baseline level determined for each individual. […] The mechanism for this increase in adiponectin concentration in the blood is not known, but it is contemplated that it may due to increased synthesis, increased release of stored adiponectin, or a combination of these. Therefore, in some embodiments of the inventive subject matter blood concentrations of adiponectin may be increased by about 1%, 2%, 3%, 4%, 5%, 10%, 15%, 20%, 25%, 30%, or more relative to pretreatment values following administration of a boro-carbohydrate complex.
(§1) In all of the above oral administrations, the human volunteers were provided with orally administered single daily doses of 5-50 mg of calcium fructoborate for at least 14 days. […]

YKL-40 = assay: Oral administration to human volunteers: YKL-40 in blood (Quidel immunoassay); settings: samples after 7 and 14 days vs Day 0, FIG. 3
Description: In all of the above oral administrations, the human volunteers were provided with orally administered single daily doses of 5-50 mg of calcium fructoborate for at least 14 days. However, it should be noted that the orally administered compositions may vary considerably, so long as at least 0.1 mg, more typically at least 1.0 mg, and most typically at least 10-100 mg of the compound are administered to the human (or other mammal). Thus, typical administrations will provide 0.001-0.01 mg/kg, more typically 0.01-0.1 mg/kg, and most typically 0.1-5.0 mg/kg (and in some cases even higher) of the boro-carbohydrate compound per day. […]
In this instance the effect of the administration of CFB on the concentration of YKL-40 in the blood of human volunteers, along with the effect of administration of sodium borate (Na borate) and a placebo compound, was measured. […]
Additional samples were taken after 7 and 14 days of treatment, and the concentration of YKL-40 compared to the baseline level determined for each individual. YKL-40 was characterized using a commercially available immunoassay from Quidel (San Diego, Calif.) according to the manufacturer's directions, and the percentage change from pretreatment concentrations of YKL-40 were calculated. […]

total osteocalcin = assay: Oral administration to human volunteers: total osteocalcin in blood; settings: data not shown
[1] = system: under-carboxylated osteocalcin; assay: Oral administration to human volunteers: under-carboxylated osteocalcin in blood (Cusabio immunoassay); settings: single daily doses of 5-50 mg, samples after 7 and 14 days vs day 0, FIG. 1
Description: In this instance the effect of administration of a CFB on the concentration of under-carboxylated osteocalcin in the blood of human volunteers, along with the effect of administration of sodium borate (Na borate) and a placebo compound was measured. Blood samples were taken at day 0 prior to administration in order to establish a baseline concentration for each individual. Additional samples were taken after 7 and 14 days of treatment. Under-carboxylated osteocalcin was characterized using a commercially available immunoassay from Cusabio Biotech Co. LTD (Newark, Del.) according to the manufacturer's directions, and the percentage change from pretreatment concentrations of under-carboxylated osteocalcin were calculated. […] In some embodiments of the inventive subject matter the percentage of under-carboxylated osteocalcin (including non-carboxylated osteocalcin) may thus be reduced by about 1%, 2%, 3%, 4%, 5%, 10%, 15%, 20%, 25%, 30%, 35%, 40%, 45%, 50% or more relative to pretreatment values following oral administration of CFB.
as §1

C-reactive protein (CRP) = assay: Oral administration to human volunteers: circulating C-reactive protein; settings: FIG. 4
Description: In all of the above oral administrations, the human volunteers were provided with orally administered single daily doses of 5-50 mg of calcium fructoborate for at least 14 days. However, it should be noted that the orally administered compositions may vary considerably, so long as at least 0.1 mg, more typically at least 1.0 mg, and most typically at least 10-100 mg of the compound are administered to the human (or other mammal). Thus, typical administrations will provide 0.001-0.01 mg/kg, more typically 0.01-0.1 mg/kg, and most typically 0.1-5.0 mg/kg (and in some cases even higher) of the boro-carbohydrate compound per day. Such administration may be performed in numerous formats, and all types of formulations comprising contemplated compounds are deemed suitable for use herein, including as nutritional supplement, as ingredient in a snack (e.g., energy bar, fruit leather, etc.), a cereal, a beverage, etc.
Additionally, it is contemplated that compounds and compositions according to the inventive subject matter may influence various parameters associated with an inflammatory response, as YKL-40 has been proposed as a diagnostic marker for inflammation. […] Thus, it should be appreciated that contemplated compositions are especially advantageous in reduction of inflammatory markers and conditions associated with increased levels of such markers.

| Compound | blood concentration of adiponectin compared to baseline (adiponectin) | concentration of YKL-40 in blood, percentage change from pretreatment (YKL-40) | effect on total osteocalcin (total osteocalcin) | concentration of under-carboxylated osteocalcin in blood, percentage change from pretreatment [1] | concentration of circulating CRP (C-reactive protein (CRP)) |
| --- | --- | --- | --- | --- | --- |
| O.O.O.O.O.O.O.O.O.O.[Na+].[Na+].[O-]B1OB2OB([O-])OB(O1)O2 [sodium borate, reference compound] | similar, but markedly reduced, effect |  |  |  |  |
| calcium fructoborate [CFB] | rapid and sustained increase | significant reduction | no discernable effect | significant reduction | substantially greater effect on reducing the concentration of CRP than sodium borate |
